# Test results reported in paper PMC7954579 (Cancer chemotherapy and pharmacology, 2020).
# Experiments:
# HSP70 [1] = assay: Soluble HSP70 protein in patient plasma by ELISA; type: in vivo, human
# HSP90 = settings: cited from earlier work
# [2] = IV, days 1, 4, 8, 11 of 21-day cycle, with AT7519 21 mg/m^2 (DL2)
# [3] = twice-weekly schedule, monotherapy; cited from earlier work
# HSP70 [4] = assay: HSP70 protein in patient PBMCs by western blot; type: in vivo, human; settings: after onalespib alone (C0D4), all dose levels
# [5] = Plasma pharmacokinetics in patients; type: in vivo, human; settings: for AUC / Cmax / half-life: human, plasma
# [6] = All dose levels, C0D1, onalespib alone, n = 27, geometric mean
# [7] = All dose levels, C1D1, onalespib with AT7519, n = 24, geometric mean
# [8] = All dose levels, C1D11, onalespib with AT7519, n = 16, geometric mean
# [9] = DL1, C0D1, onalespib 40 mg/m^2 IV alone, n = 5, geometric mean
# [10] = DL1, C1D1, onalespib 40 mg/m^2 with AT7519 21 mg/m^2, n = 4, geometric mean
# [11] = DL1, C1D11, onalespib 40 mg/m^2 with AT7519 21 mg/m^2, n = 2, geometric mean
# [12] = DL2, C0D1, onalespib 80 mg/m^2 IV alone, n = 17, geometric mean
# [13] = DL2, C1D1, onalespib 80 mg/m^2 with AT7519 21 mg/m^2, n = 16, geometric mean
# [14] = DL2, C1D11, onalespib 80 mg/m^2 with AT7519 21 mg/m^2, n = 11, geometric mean
# [15] = DL3, C0D1, onalespib 80 mg/m^2 IV alone, n = 5, geometric mean
# [16] = DL3, C1D1, onalespib 80 mg/m^2 with AT7519 27 mg/m^2, n = 4, geometric mean
# [17] = DL3, C1D11, onalespib 80 mg/m^2 with AT7519 27 mg/m^2, n = 3, geometric mean
smiles,measurement,setting,value
"CC(C)c1cc(C(=O)N2Cc3ccc(CN4CCN(C)CC4)cc3C2)c(O)cc1O [onalespib, (2,4-dihydroxy-5-isopropylphenyl)-[5-(4-methylpiperazin-1-ylmethyl)-1,3-dihydroisoindol-2-yl]methanone]",HSP70 protein expression in plasma,"HSP70 [1]; after onalespib alone (C0D4), all dose levels",Increased HSP70 protein expression
same,Soluble HSP70 expression in plasma,"HSP70 [1]; patient with palate adenocarcinoma (confirmed PR), after onalespib alone",increase in soluble HSP70 expression
same,IC50,HSP90,0.7 nM
same,Maximally tolerated dose (MTD) of onalespib in the combination,[2],80 mg/m^2
same,RP2D as individual agent,[3],120 mg/m^2
same,HSP70 protein expression in PBMCs,HSP70 [4],Increased HSP70 protein expression
same,CL,[5]; [6],52.2 L/h/m^2
same,Vz,[5]; [6],754 L/m^2
same,CL,[5]; [7],58.4 L/h/m^2
same,Vz,[5]; [7],725 L/m^2
same,CL,[5]; [8],61.0 L/h/m^2
same,Vz,[5]; [8],706 L/m^2
same,CL,[5]; [9],51.3 L/h/m^2
same,Vz,[5]; [9],742 L/m^2
same,CL,[5]; [10],64.4 L/h/m^2
same,Vz,[5]; [10],891 L/m^2
same,CL,[5]; [11],65.6 L/h/m^2
same,Vz,[5]; [11],855 L/m^2
same,CL,[5]; [12],53.8 L/h/m^2
same,Vz,[5]; [12],804 L/m^2
same,CL,[5]; [13],57.5 L/h/m^2
same,Vz,[5]; [13],721 L/m^2
same,CL,[5]; [14],62.5 L/h/m^2
same,Vz,[5]; [14],743 L/m^2
same,CL,[5]; [15],47.7 L/h/m^2
same,Vz,[5]; [15],617 L/m^2
same,CL,[5]; [16],56.7 L/h/m^2
same,Vz,[5]; [16],606 L/m^2
same,CL,[5]; [17],53.1 L/h/m^2
same,Vz,[5]; [17],516 L/m^2
same,AUC,"[5]; intravenous, AUC, DL1, C1D1, onalespib 40 mg/m^2 with AT7519 21 mg/m^2, n = 4, geometric mean",621 ng·h/mL
same,AUC,"[5]; intravenous, AUC, DL1, C1D11, onalespib 40 mg/m^2 with AT7519 21 mg/m^2, n = 2, geometric mean",610 ng·h/mL
same,AUC,"[5]; intravenous, AUC, DL2, C1D1, onalespib 80 mg/m^2 with AT7519 21 mg/m^2, n = 16, geometric mean",1390 ng·h/mL
same,AUC,"[5]; intravenous, AUC, DL2, C1D11, onalespib 80 mg/m^2 with AT7519 21 mg/m^2, n = 11, geometric mean",1280 ng·h/mL
same,AUC,"[5]; intravenous, AUC, DL3, C1D1, onalespib 80 mg/m^2 with AT7519 27 mg/m^2, n = 4, geometric mean",1410 ng·h/mL
same,AUC,"[5]; intravenous, AUC, DL3, C1D11, onalespib 80 mg/m^2 with AT7519 27 mg/m^2, n = 3, geometric mean",1510 ng·h/mL
same,Cmax,"[5]; intravenous, Cmax, DL1, C1D1, onalespib 40 mg/m^2 with AT7519 21 mg/m^2, n = 4, geometric mean",146 ng/mL
same,Cmax,"[5]; intravenous, Cmax, DL1, C1D11, onalespib 40 mg/m^2 with AT7519 21 mg/m^2, n = 2, geometric mean",155 ng/mL
same,Cmax,"[5]; intravenous, Cmax, DL2, C1D1, onalespib 80 mg/m^2 with AT7519 21 mg/m^2, n = 16, geometric mean",331 ng/mL
same,Cmax,"[5]; intravenous, Cmax, DL2, C1D11, onalespib 80 mg/m^2 with AT7519 21 mg/m^2, n = 11, geometric mean",355 ng/mL
same,Cmax,"[5]; intravenous, Cmax, DL3, C1D1, onalespib 80 mg/m^2 with AT7519 27 mg/m^2, n = 4, geometric mean",331 ng/mL
same,Cmax,"[5]; intravenous, Cmax, DL3, C1D11, onalespib 80 mg/m^2 with AT7519 27 mg/m^2, n = 3, geometric mean",424 ng/mL
same,half-life,"[5]; intravenous, t1/2,z, All dose levels, C0D1, onalespib alone, n = 27, geometric mean",10 h
same,half-life,"[5]; intravenous, t1/2,z, DL1, C1D1, onalespib 40 mg/m^2 with AT7519 21 mg/m^2, n = 4, geometric mean",9.6 h
same,half-life,"[5]; intravenous, t1/2,z, DL1, C1D11, onalespib 40 mg/m^2 with AT7519 21 mg/m^2, n = 2, geometric mean",9.4 h
same,half-life,"[5]; intravenous, t1/2,z, DL2, C1D1, onalespib 80 mg/m^2 with AT7519 21 mg/m^2, n = 16, geometric mean",8.7 h
same,half-life,"[5]; intravenous, t1/2,z, DL2, C1D11, onalespib 80 mg/m^2 with AT7519 21 mg/m^2, n = 11, geometric mean",8.2 h
same,half-life,"[5]; intravenous, t1/2,z, DL3, C1D1, onalespib 80 mg/m^2 with AT7519 27 mg/m^2, n = 4, geometric mean",7.4 h
same,half-life,"[5]; intravenous, t1/2,z, DL3, C1D11, onalespib 80 mg/m^2 with AT7519 27 mg/m^2, n = 3, geometric mean",6.7 h
same,AUC,"[5]; iv, 40 mg/m2, AUC, DL1, C0D1, onalespib 40 mg/m^2 IV alone, n = 5, geometric mean",780 ng·h/mL
same,Cmax,"[5]; iv, 40 mg/m2, Cmax, DL1, C0D1, onalespib 40 mg/m^2 IV alone, n = 5, geometric mean",193 ng/mL
same,half-life,"[5]; iv, 40 mg/m2, t1/2,z, DL1, C0D1, onalespib 40 mg/m^2 IV alone, n = 5, geometric mean",10 h
same,AUC,"[5]; iv, 80 mg/m2, AUC, DL2, C0D1, onalespib 80 mg/m^2 IV alone, n = 17, geometric mean",1490 ng·h/mL
same,AUC,"[5]; iv, 80 mg/m2, AUC, DL3, C0D1, onalespib 80 mg/m^2 IV alone, n = 5, geometric mean",1680 ng·h/mL
same,Cmax,"[5]; iv, 80 mg/m2, Cmax, DL2, C0D1, onalespib 80 mg/m^2 IV alone, n = 17, geometric mean",349 ng/mL
same,Cmax,"[5]; iv, 80 mg/m2, Cmax, DL3, C0D1, onalespib 80 mg/m^2 IV alone, n = 5, geometric mean",487 ng/mL
same,half-life,"[5]; iv, 80 mg/m2, t1/2,z, DL2, C0D1, onalespib 80 mg/m^2 IV alone, n = 17, geometric mean",10.4 h
same,half-life,"[5]; iv, 80 mg/m2, t1/2,z, DL3, C0D1, onalespib 80 mg/m^2 IV alone, n = 5, geometric mean",9 h
